Test [1] has as its target TnmH (Streptomyces sp. CB03234). Kind of test: SEC. (In general: In gel filtration, larger molecules generally elute earlier.)
Test [2] concerns the target T1, TnmH (Streptomyces sp. CB03234, UniProt A0A125SA05). The conditions noted are these: saturating SAM (1 mM).
Test [3] concerns the target T1, TnmH. Kind of test: biochemical.

Read-outs that look alike come from different tables or passages of the source.

This passage reports stoichiometry N and Km results from article PMC7461649 (Journal of medicinal chemistry, 2020).

Usually stoichiometry N stands for a count of units in the complex or per binding partner. The Km is the substrate concentration at which the rate is half of its maximum.

In test [1], TnmH (enzyme) registered a stoichiometry N of 2.
In the case of TNM F [compound 10], at TnmH [2] (10 varied 7.8 to 500 μM, C-7 hydroxyl methylation to 12), the Km came to 11.7 ± 1.2 µM.
Take `COC(=O)C(O)C(C)(O)[C@@]12OC13c1cc(O)c4c(c1N[C@H]2C#C/C=C\C#C[C@H]3O)C(=O)c1c(ccc(O)c1O)C4=O` (stereo partly shown) [compound 11, TNM C]: at TnmH [2] (11 varied 7.8 to 500 μM, C-7 hydroxyl methylation to 13), the Km is 31.1 ± 4.1 µM.
Regarding `C[S+](CC[C@H](N)C(=O)O)C[C@H]1O[C@@H](n2cnc3c(N)ncnc32)[C@H](O)[C@@H]1O` (stereo partly shown) [SAM], on TnmH [3], the Km came to 62 ± 4.8 µM.
